Results as given in US9099654B2, “Benzofluorene compound, emission materials and organic electroluminescent device” (JNC Corporation, priority 2006, dated 2015).

Experiment: Solubility in solvents at 25° C. (Table 1)
Type: physicochemical

Structure (SMILES)	Solubility (25° C.) g/100 ml (ethyl acetate)	Solubility (25° C.) g/100 ml (toluene)	solubility in the solvents compared with compound (2) (ethyl acetate and toluene, comparison in words)
c1ccc(C2(c3ccccc3)c3cc(-c4ccc5ccccc5c4)ccc3-c3c2cc(-c2ccc4ccccc4c2)c2ccccc32)cc1 [Compound (1-13)]	1 g/100 ml	8 g/100 ml	apparently more excellent in solubility in the solvents than the compound (2)
c1ccc(C2(c3ccccc3)c3cc(-c4ccc5ccccc5c4)ccc3-c3ccc4cc(-c5ccc6ccccc6c5)ccc4c32)cc1 [Compound (2), 3,9-dinaphthalene-2-yl-11,11-diphenyl-11H-benzo[a]fluorene, reference compound]	0.2 g/100 ml	0.9 g/100 ml	–
